These results are taken from patent publication US9981942B2, “Piperidine derivatives having multimodal activity against pain” (LABORATORIOS DEL DR. ESTEVE S.A., priority 2013, dated 2018).

Bounds are passed on as bounds.

The first assay relates to σ1 receptor and the μ-opiod receptor. Briefly: μ and σ1 dual binding: combined class from the Ki of both radioligand assays. Set-up: species or system human; key to μ and σ1 dual binding: +: Both Ki-μ and Ki-σ1>=500 nM; ++: One Ki<500 nM while the other Ki is >=500 nM; +++: Both Ki-μ and Ki-σ1<500 nM; ++++: Both Ki-μ and Ki-σ1<100 nM. The following applies: combined class for Ki-μ and Ki-σ1; transfected HEK-293 membranes (σ1), transfected CHO-K1 cell membranes (μ). The protocol:
To investigate binding properties of σ1 receptor ligands to human σ1 receptor, transfected HEK-293 membranes and [^3H](+)-pentazocine (Perkin Elmer, NET-1056), as the radioligand, were used. The assay was carried out with 7 μg of membrane suspension, 5 nM of [^3H](+)-pentazocine in either absence or presence of either buffer or 10 μM Haloperidol for total and non-specific binding, respectively. Binding buffer contained Tris-HCl 50 mM at pH 8. Plates were incubated at 37° C. for 120 minutes. After the incubation period, the reaction mix was then transferred to MultiScreen HTS, FC plates (Millipore), filtered and plates were washed 3 times with ice-cold 10 mM Tris-HCL (pH7.4). Filters were dried and counted at approximately 40% efficiency in a MicroBeta scintillation counter (Perkin-Elmer) using EcoScint liquid scintillation cocktail
To investigate binding properties of mu-opioid receptor ligands to human μ-opioid receptor, transfected CHO-K1 cell membranes and [^3H]-DAMGO (Perkin Elmer, ES-542-C), as the radioligand, were used. The assay was carried out with 20 μg of membrane suspension, 1 nM of [^3H]-DAMGO in either absence or presence of either buffer or 10 μM Naloxone for total and non-specific binding, respectively. Binding buffer contained Tris-HCl 50 mM, MgCl2 5 mM at pH 7.4. Plates were incubated at 27° C. for 60 minutes. After the incubation period, the reaction mix was then transferred to MultiScreen HTS, FC plates (Millipore), filtered and plates were washed 3 times with ice-cold 10 mM Tris-HCL (pH 7.4). Filters were dried and counted at approximately 40% efficiency in a MicroBeta scintillation counter (Perkin-Elmer) using EcoScint liquid scintillation cocktail.
The following scale as been adopted for representing the binding to the σ1 receptor and the μ-opiod receptor expressed as Ki: • + Both Ki-μ and Ki-σ1>=500 nM • ++ One Ki<500 nM while the other Ki is >=500 nM • +++ Both Ki-μ and Ki-σ1<500 nM • ++++ Both Ki-μ and Ki-σ1<100 nM
For `CN(c1cccc(C2CCN(Cc3cn(-c4ccccc4)nn3)CC2)c1)S(C)(=O)=O` [Example 31, N-methyl-N-(3-(1-((1-phenyl-1H-1,2,3-triazol-4-yl)methyl)piperidin-4-yl)phenyl)methanesulfonamide], the “μ and σ1 dual binding” value is given as “++”.
On to `O=C1Cc2c(cccc2C2CCN(Cc3cn(-c4ccccc4)nn3)CC2)N1` [Example 32, 4-(1-((1-phenyl-1H-1,2,3-triazol-4-yl)methyl)piperidin-4-yl)indolin-2-one], for which the “μ and σ1 dual binding” value is “++”.
With `CN(C)C(=O)Nc1cccc(C2CCN(Cc3cn(-c4ccccc4)nn3)CC2)c1` [Example 38, 1,1-dimethyl-3-(3-(1-((1-phenyl-1H-1,2,3-triazol-4-yl)methyl)piperidin-4-yl)phenyl)urea], the “μ and σ1 dual binding” value is “++”.
For the molecule `CCN(CC)C(=O)Cn1cc(CN2CCC(c3cccc(O)c3)CC2)nn1` [Example 45, N,N-diethyl-2-(4-((4-(3-hydroxyphenyl)piperidin-1-yl)methyl)-1H-1,2,3-triazol-1-yl)acetamide], the “μ and σ1 dual binding” value is listed as “++”.

The same assay, now with this note: transfected HEK-293 membranes (σ1), transfected CHO-K1 cell membranes (μ).
As for `CS(=O)(=O)Nc1cccc(C2CCN(Cc3cn(-c4ccccc4F)nn3)CC2)c1` [Example 27, N-(3-(1-((1-(2-fluorophenyl)-1H-1,2,3-triazol-4-yl)methyl)piperidin-4-yl)phenyl)methanesulfonamide], the Ki range for both μ and σ1 (dual-binding class) was below 100 nM.
As to `CS(=O)(=O)Nc1cccc(C2CCN(Cc3cn(-c4cccc(F)c4)nn3)CC2)c1` [Example 28, N-(3-(1-((1-(3-fluorophenyl)-1H-1,2,3-triazol-4-yl)methyl)piperidin-4-yl)phenyl)methanesulfonamide], the Ki range for both μ and σ1 (dual-binding class) was below 100 nM.
Turning to `c1ccc(-n2cc(CN3CCC(c4cccc5[nH]ncc45)CC3)nn2)cc1` [Example 29, 4-(1-((1-phenyl-1H-1,2,3-triazol-4-yl)methyl)piperidin-4-yl)-1H-indazole], the Ki range for both μ and σ1 (dual-binding class) was below 500 nM.
As for `c1ccc(-n2cc(CN3CCC(c4cccc(-c5ncc[nH]5)c4)CC3)nn2)cc1` [Example 30, 4-(3-(1H-imidazol-2-yl)phenyl)-1-((1-phenyl-1H-1,2,3-triazol-4-yl)methyl)piperidine], the Ki range for both μ and σ1 (dual-binding class) is below 500 nM.
Same read-out and setting: the same measure for `CS(=O)(=O)Nc1cc(C2CCN(Cc3cn(-c4ccccc4)nn3)CC2)ccc1F` [Example 34, N-(2-fluoro-5-(1-((1-phenyl-1H-1,2,3-triazol-4-yl)methyl)piperidin-4-yl)phenyl)methanesulfonamide]: below 500 nM; for `CS(=O)(=O)Nc1cc(F)cc(C2CCN(Cc3cn(-c4ccccc4)nn3)CC2)c1` [Example 35, N-(3-fluoro-5-(1-((1-phenyl-1H-1,2,3-triazol-4-yl)methyl)piperidin-4-yl)phenyl)methanesulfonamide]: below 100 nM.
Take `Oc1cccc(C2CCN(Cc3cn(-c4ccc(F)cc4)nn3)CC2)c1` [Example 36, 3-(1-((1-(4-fluorophenyl)-1H-1,2,3-triazol-4-yl)methyl)piperidin-4-yl)phenol]: the Ki range for both μ and σ1 (dual-binding class) was below 100 nM.
For `CS(=O)(=O)Nc1cccc(C2CCN(Cc3cn(Cc4ccccc4)nn3)CC2)c1` [Example 37, N-(3-(1-((1-benzyl-1H-1,2,3-triazol-4-yl)methyl)piperidin-4-yl)phenyl)methanesulfonamide], the Ki range for both μ and σ1 (dual-binding class) is below 500 nM.
On to `CC(=O)Nc1cc(F)cc(C2CCN(Cc3cn(-c4ccccc4)nn3)CC2)c1` [Example 39, N-(3-fluoro-5-(1-((1-phenyl-1H-1,2,3-triazol-4-yl)methyl)piperidin-4-yl)phenyl)acetamide], for which the Ki range for both μ and σ1 (dual-binding class) was below 500 nM.
Consider `Oc1cccc(C2CCN(Cc3cn(-c4ccc(Cl)c(Cl)c4)nn3)CC2)c1` [Example 40, 3-(1-((1-(3,4-dichlorophenyl)-1H-1,2,3-triazol-4-yl)methyl)piperidin-4-yl)phenol], for which the Ki range for both μ and σ1 (dual-binding class) is below 100 nM.
As to `Oc1cccc(C2CCN(Cc3cn(-c4ccc(Cl)cc4Cl)nn3)CC2)c1` [Example 41, 3-(1-((1-(2,4-dichlorophenyl)-1H-1,2,3-triazol-4-yl)methyl)piperidin-4-yl)phenol], the Ki range for both μ and σ1 (dual-binding class) was below 100 nM.
Consider `Cc1nnc(-c2cccc(C3CCN(Cc4cn(-c5ccccc5)nn4)CC3)c2)o1` [Example 42, 2-methyl-5-(3-(1-((1-phenyl-1H-1,2,3-triazol-4-yl)methyl)piperidin-4-yl)phenyl)-1,3,4-oxadiazole], for which the Ki range for both μ and σ1 (dual-binding class) was below 500 nM.
Same read-out and setting: next, `N#Cc1ccc(Cn2cc(CN3CCC(c4cccc(O)c4)CC3)nn2)cc1` [Example 43, 4-((4-((4-(3-hydroxyphenyl)piperidin-1-yl)methyl)-1H-1,2,3-triazol-1-yl)methyl)benzonitrile]: below 100 nM; `COc1cccc(-n2cc(CN3CCC(c4cccc(O)c4)CC3)nn2)c1` [Example 44, 3-(1-((1-(3-methoxyphenyl)-1H-1,2,3-triazol-4-yl)methyl)piperidin-4-yl)phenol]: below 100 nM.
Still for that read-out and setting: the same measure for `Oc1cccc(C2CCN(Cc3cn(C4CCc5ccccc54)nn3)CC2)c1` (centres unmarked) [Example 46, 3-(1-((1-(2,3-dihydro-1H-inden-1-yl)-1H-1,2,3-triazol-4-yl)methyl)piperidin-4-yl)phenol]: below 100 nM; for `CS(=O)(=O)c1cccc(C2CCN(Cc3cn(-c4ccccc4)nn3)CC2)c1` [Example 47, 4-(3-(methylsulfonyl)phenyl)-1-((1-phenyl-1H-1,2,3-triazol-4-yl)methyl)piperidine]: below 500 nM.
On the same count and under the same terms, next, `CS(=O)(=O)Nc1cccc(C2CCN(Cc3cn(C4CCc5ccccc54)nn3)CC2)c1` (centres unmarked) [Example 48, N-(3-(1-((1-(2,3-dihydro-1H-inden-1-yl)-1H-1,2,3-triazol-4-yl)methyl)piperidin-4-yl)phenyl)methanesulfonamide]: below 500 nM; `CC(=O)Nc1nc2c(C3CCN(Cc4cn(-c5ccccc5)nn4)CC3)cccc2s1` [Example 49, N-(4-(1-((1-Phenyl-1H-1,2,3-triazol-4-yl)methyl)piperidin-4-yl)benzo[d]thiazol-2-yl)acetamide]: below 100 nM; `Nc1nc2c(C3CCN(Cc4cn(-c5ccccc5)nn4)CC3)cccc2s1` [Example 50, 4-(1-((1-phenyl-1H-1,2,3-triazol-4-yl)methyl)piperidin-4-yl)benzo[d]thiazol-2-amine]: below 100 nM.
`CC(C)NC(=O)c1cccc(C2CCN(Cc3cn(Cc4ccccc4)nn3)CC2)c1` [Example 51, 3-(1-((1-benzyl-1H-1,2,3-triazol-4-yl)methyl)piperidin-4-yl)-N-isopropylbenzamide]: the Ki range for both μ and σ1 (dual-binding class) is at least 500 nM.
In the case of `Cc1ccc(C2CCN(Cc3cn(-c4ccccc4)nn3)CC2)cc1O` [Example 52, 2-methyl-5-(1-((1-phenyl-1H-1,2,3-triazol-4-yl)methyl)piperidin-4-yl)phenol], the Ki range for both μ and σ1 (dual-binding class) was below 100 nM.
Consider `CS(=O)(=O)Nc1cccc(C2CCN(Cc3cn(-c4ccccc4)nn3)CC2)c1F` [Example 53, N-(2-fluoro-3-(1-((1-phenyl-1H-1,2,3-triazol-4-yl)methy)piperidin-4-yl)phenyl)methanesulfonamide], for which the Ki range for both μ and σ1 (dual-binding class) is below 100 nM.
